Among the data in patent US9216999B2, “Substituted pyrrolo[2,3-h][1,6]naphthyridines and compositions thereof as JAK inhibitors” (priority 2011, dated 2015) are IC50 values, retold here.

Format in all cases: biochemical
Settings in all cases: ATP 100 μM

Experiment [1] deals with JAK2 (Homo sapiens (Human), UniProt O60674). In words: Enzyme assay (Assay Example^a 1), JAK2.
Experiment [2] concerns the target JAK3 (Homo sapiens (Human), UniProt P52333). Put plainly: Enzyme assay (Assay Example^a 1), JAK3.
Experiment [3] addresses JAK1 (Homo sapiens (Human), UniProt P23458). In words: Enzyme assay (Assay Example^a 1), JAK1.
Experiment [4] has as its target Tyk2 (Homo sapiens (Human), UniProt P29597). Put plainly: Enzyme assay (Assay Example^a 1), Tyk2.

Chain of JAK3 (P52333 whole entry): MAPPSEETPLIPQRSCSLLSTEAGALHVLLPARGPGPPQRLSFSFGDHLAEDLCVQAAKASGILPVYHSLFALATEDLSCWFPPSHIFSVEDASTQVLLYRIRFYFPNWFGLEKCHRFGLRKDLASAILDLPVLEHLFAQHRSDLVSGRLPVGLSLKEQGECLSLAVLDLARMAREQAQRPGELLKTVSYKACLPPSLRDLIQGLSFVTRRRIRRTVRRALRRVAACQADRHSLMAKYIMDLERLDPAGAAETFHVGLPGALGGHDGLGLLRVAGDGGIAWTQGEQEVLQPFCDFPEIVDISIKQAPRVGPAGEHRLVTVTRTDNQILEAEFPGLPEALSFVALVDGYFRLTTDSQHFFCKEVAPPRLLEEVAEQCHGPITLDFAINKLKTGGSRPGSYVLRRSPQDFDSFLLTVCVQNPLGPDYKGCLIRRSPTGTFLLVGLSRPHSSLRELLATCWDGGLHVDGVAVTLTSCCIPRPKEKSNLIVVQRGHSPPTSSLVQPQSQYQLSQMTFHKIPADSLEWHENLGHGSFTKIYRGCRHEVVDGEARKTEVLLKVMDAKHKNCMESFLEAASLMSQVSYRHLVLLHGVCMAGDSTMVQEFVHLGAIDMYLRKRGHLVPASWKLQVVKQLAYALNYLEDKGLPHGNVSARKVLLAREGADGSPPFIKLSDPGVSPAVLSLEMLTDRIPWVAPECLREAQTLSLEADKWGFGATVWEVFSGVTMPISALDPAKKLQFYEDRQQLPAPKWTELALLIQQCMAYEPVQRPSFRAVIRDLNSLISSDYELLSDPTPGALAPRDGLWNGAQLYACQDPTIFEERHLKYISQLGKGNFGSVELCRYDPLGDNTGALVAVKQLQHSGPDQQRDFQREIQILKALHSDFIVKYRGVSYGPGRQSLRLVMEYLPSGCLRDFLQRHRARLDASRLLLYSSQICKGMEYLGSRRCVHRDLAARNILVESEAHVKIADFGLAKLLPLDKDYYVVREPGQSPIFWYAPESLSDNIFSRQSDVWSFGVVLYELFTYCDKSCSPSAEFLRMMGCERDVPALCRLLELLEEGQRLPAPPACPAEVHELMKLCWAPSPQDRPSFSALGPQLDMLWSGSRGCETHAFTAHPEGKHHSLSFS
Chain of Tyk2 (P29597 whole entry): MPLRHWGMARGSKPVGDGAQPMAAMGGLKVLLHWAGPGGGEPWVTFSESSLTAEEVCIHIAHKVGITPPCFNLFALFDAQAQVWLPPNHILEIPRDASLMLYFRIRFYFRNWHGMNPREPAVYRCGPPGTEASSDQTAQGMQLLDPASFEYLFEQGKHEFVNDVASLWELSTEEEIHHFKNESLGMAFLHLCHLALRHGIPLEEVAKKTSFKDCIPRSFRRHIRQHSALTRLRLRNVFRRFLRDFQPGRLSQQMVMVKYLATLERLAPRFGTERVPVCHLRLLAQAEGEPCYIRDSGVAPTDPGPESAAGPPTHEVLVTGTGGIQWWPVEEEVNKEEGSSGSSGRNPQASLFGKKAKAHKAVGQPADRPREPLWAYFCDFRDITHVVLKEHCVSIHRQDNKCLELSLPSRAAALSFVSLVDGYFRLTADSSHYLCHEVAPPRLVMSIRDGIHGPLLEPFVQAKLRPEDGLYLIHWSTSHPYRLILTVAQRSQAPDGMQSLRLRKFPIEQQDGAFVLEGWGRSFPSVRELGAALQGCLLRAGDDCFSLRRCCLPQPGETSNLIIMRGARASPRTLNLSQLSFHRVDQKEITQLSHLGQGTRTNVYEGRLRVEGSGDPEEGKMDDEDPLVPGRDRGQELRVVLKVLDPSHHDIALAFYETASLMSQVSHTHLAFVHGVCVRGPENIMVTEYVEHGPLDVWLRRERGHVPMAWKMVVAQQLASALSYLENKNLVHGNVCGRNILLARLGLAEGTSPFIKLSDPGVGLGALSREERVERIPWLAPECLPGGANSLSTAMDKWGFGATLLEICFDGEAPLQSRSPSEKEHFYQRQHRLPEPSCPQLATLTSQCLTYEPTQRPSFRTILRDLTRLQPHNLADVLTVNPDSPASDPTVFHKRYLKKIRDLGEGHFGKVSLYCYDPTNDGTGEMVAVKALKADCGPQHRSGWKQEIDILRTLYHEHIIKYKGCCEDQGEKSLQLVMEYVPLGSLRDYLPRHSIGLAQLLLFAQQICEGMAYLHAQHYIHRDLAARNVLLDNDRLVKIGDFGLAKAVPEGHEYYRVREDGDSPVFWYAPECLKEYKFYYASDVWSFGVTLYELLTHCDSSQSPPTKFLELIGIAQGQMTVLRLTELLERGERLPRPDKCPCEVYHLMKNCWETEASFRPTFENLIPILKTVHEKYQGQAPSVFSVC

In the case of `N#CCNC[C@H]1CC[C@H](c2nnn3cnc4[nH]ccc4c23)CC1` [compound 259, 2-({[trans-4-(7H-pyrrolo[3,2-e][1,2,3]triazolo[1,5-c]pyrimidin-1-yl)cyclohexyl]methyl}amino)acetonitrile], the half-maximal inhibitory concentration (IC50) (as a rule, the concentration that inhibits the measured activity by half) was 0.0081 µM in experiment [1], 0.27 µM in experiment [2], 0.0021 µM in experiment [3] and 0.037 µM in experiment [4].

Take `[N-]=[N+]=NC[C@H]1CC[C@H](c2nnn3cnc4[nH]ccc4c23)CC1` [compound 369, 1-[trans-4-(Azidomethyl)cyclohexyl]-7H-pyrrolo[3,2-e][1,2,3]triazolo[1,5-c]pyrimidine]: the 50% inhibitory concentration (IC50) in experiment [1] was 0.0017 µM; in experiment [2], 0.048 µM; in experiment [3], 0.00033 µM; in experiment [4], 0.0092 µM.

For `O=C(C[C@H]1CC[C@@H](c2nnn3cnc4[nH]ccc4c23)CC1)NCC(F)(F)F` [442a, 2-[cis-4-(7H-Pyrrolo[3,2-e][1,2,3]triazolo[1,5-c]pyrimidin-1-yl)cyclohexyl]-N-2,2,2-trifluoroethylacetamide], the half-inhibitory concentration (IC50) in experiment [1] amounted to 0.061 µM; in experiment [2], 0.52 µM; in experiment [3], 0.027 µM; in experiment [4], 0.79 µM.

For the compound `c1cn(-c2ccc(CN3CCC(c4nnn5cnc6[nH]ccc6c45)CC3)cc2)cn1` [compound 221, 1-{1-[4-(1H-imidazol-1-yl)benzyl]piperidin-4-yl}-7H-pyrrolo[3,2-e][1,2,3]triazolo[1,5-c]pyrimidine], the IC50 in experiment [1] is 0.09 µM; in experiment [2] it was over 1 µM; in experiment [3] it was 0.018 µM; in experiment [4], over 1 µM.

For `N#CCC(=O)N(CC#N)C[C@H]1CC[C@H](c2nnn3cnc4[nH]ccc4c23)CC1` [compound 408, N-{[trans-4-(7H-pyrrolo[3,2-e][1,2,3]triazolo[1,5-c]pyrimidin-1-yl)cyclohexyl]methyl}-2-cyano-N-(cyanomethyl)acetamide], the half-inhibitory concentration (IC50) was found to be 0.013 µM in experiment [1], 0.22 µM in experiment [2], 0.0052 µM in experiment [3] and 0.31 µM in experiment [4].

On to `N#CC[C@H]1CC[C@H](c2nnn3cnc4[nH]ccc4c23)CC1` [435b, 2-[trans-4-(7H-Pyrrolo[3,2-e][1,2,3]triazolo[1,5-c]pyrimidin-1-yl)cyclohexyl]acetonitrile], for which the IC50 in experiment [1] is 0.0025 µM; in experiment [2], 0.032 µM; in experiment [3] it was 0.00011 µM; in experiment [4], 0.0029 µM.

For `Cc1ccc(CNC(=O)[C@H]2CC[C@H](c3nnn4cnc5[nH]ccc5c34)CC2)o1` [compound 349, trans-N-[(5-methylfuran-2-yl)methyl]-4-(7H-pyrrolo[3,2-e][1,2,3]triazolo[1,5-c]pyrimidin-1-yl)cyclohexanecarboxamide], the IC50 in experiment [1] is 0.048 µM; in experiment [2] it was over 1 µM; in experiment [3] it was 0.0059 µM; in experiment [4], 0.25 µM.

As for `Fc1ccc([C@@H]2C[C@H]2CN[C@H]2CC[C@H](c3nnn4cnc5[nH]ccc5c34)CC2)cc1` (relative stereo) [389b, trans-N-{[trans-2-(4-fluorophenyl)cyclopropyl]methyl}-4-(7H-pyrrolo[3,2-e][1,2,3]triazolo[1,5-c]pyrimidin-1-yl)cyclohexanamine], the IC50 was 0.14 µM in experiment [1], over 1 µM in experiment [2], 0.0079 µM in experiment [3] and 0.67 µM in experiment [4].

On to `N#Cc1ccc(CN2CCC(c3nnn4cnc5[nH]ccc5c34)CC2)cc1C(F)(F)F` [compound 244, 4-{[4-(7H-pyrrolo[3,2-e][1,2,3]triazolo[1,5-c]pyrimidin-1-yl)piperidin-1-yl]methyl}-2-(trifluoromethyl)benzonitrile], for which the concentration for half-maximal inhibition (IC50) worked out at 0.038 µM in experiment [1], 0.44 µM in experiment [2], 0.0054 µM in experiment [3] and 0.79 µM in experiment [4].

Consider `O=C([C@H]1CC[C@H](c2nnn3cnc4[nH]ccc4c23)CC1)N1CC[C@H](F)C1` [compound 209, [trans-4-(7H-pyrrolo[3,2-e][1,2,3]triazolo[1,5-c]pyrimidin-1-yl)cyclohexyl][(S)-3-fluoropyrrolidin-1-yl]methanone], for which the IC50 in experiment [1] (Table^a 154) was 0.42 µM; in experiment [2] (Table^a 154) it was over 1 µM; in experiment [3] (Table^a 154), 0.061 µM; in experiment [4] (Table^a 154), over 1 µM.

`CC(C#N)[C@H]1CC[C@H](c2nnn3cnc4[nH]ccc4c23)CC1` (stereo partly drawn) [439b, 2-[trans-4-(7H-Pyrrolo[3,2-e][1,2,3]triazolo[1,5-c]pyrimidin-1-yl)cyclohexyl]propanenitrile]: the concentration for half-maximal inhibition (IC50) in experiment [1] came out at 0.0067 µM; in experiment [2], 0.33 µM; in experiment [3], 0.0031 µM; in experiment [4], 0.025 µM.

Take `Clc1ccc(NC2CCC(c3nnn4cnc5[nH]ccc5c34)CC2)cc1` (stereo not drawn) [compound 205, N-[4-(7H-Pyrrolo[3,2-e]r[1,2,3]triazolo[1,5-c]pyrimidin-1-yl)cyclohexyl]-4-chloroaniline]: the IC50 in experiment [1] (Table^a 154) is 0.25 µM; in experiment [2] (Table^a 154), over 1 µM; in experiment [3] (Table^a 154), 0.026 µM; in experiment [4] (Table^a 154), 0.75 µM.

`CN[C@H]1CC[C@H](c2nnn3cnc4[nH]ccc4c23)CC1` [398b, trans-N-methyl-4-(7H-pyrrolo[3,2-e][1,2,3]triazolo[1,5-c]pyrimidin-1-yl)cyclohexanamine]: the IC50 is 0.11 µM in experiment [1], over 1 µM in experiment [2], 0.029 µM in experiment [3] and 0.75 µM in experiment [4].

As to `Clc1ccc(CN2CCC(c3nnn4cnc5[nH]ccc5c34)CC2)o1` [compound 228, 1-{1-[(5-chlorofuran-2-yl)methyl]piperidin-4-yl}-7H-pyrrolo[3,2-e][1,2,3]triazolo[1,5-c]pyrimidine], the IC50 in experiment [1] turned out to be 0.0044 µM; in experiment [2], 0.17 µM; in experiment [3], 0.0016 µM; in experiment [4], 0.1 µM.

For `CCS(=O)(=O)N1CCN(C[C@H]2CC[C@H](c3nnn4cnc5[nH]ccc5c34)CC2)CC1` [compound 345, 1-(trans-4-{[4-(ethylsulfonyl)piperazin-1-yl]methyl}cyclohexyl)-7H-pyrrolo[3,2-e][1,2,3]triazolo[1,5-c]pyrimidine], the concentration for half-maximal inhibition (IC50) was 0.2 µM in experiment [1], over 1 µM in experiment [2], 0.025 µM in experiment [3] and over 1 µM in experiment [4].

`CS(=O)(=O)c1ccc2c(c1)CCN2C[C@H]1CC[C@H](c2nnn3cnc4[nH]ccc4c23)CC1` [compound 189, 1-(trans-4-{[5-(methylsulfonyl)indolin-1-yl]methyl}cyclohexyl)-7H-pyrrolo[3,2-e][1,2,3]triazolo[1,5-c]pyrimidine]: the concentration for half-maximal inhibition (IC50) in experiment [1] (Table^a 154) was found to be 0.038 µM; in experiment [2] (Table^a 154), 0.61 µM; in experiment [3] (Table^a 154), 0.011 µM; in experiment [4] (Table^a 154), 0.38 µM.

Consider `O=C(NCCc1ccc(Cl)cc1)[C@H]1CC[C@H](c2nnn3cnc4[nH]ccc4c23)CC1` [compound 352, trans-N-(4-chlorophenethyl)-4-(7H-pyrrolo[3,2-e][1,2,3]triazolo[1,5-c]pyrimidin-1-yl)cyclohexanecarboxamide], for which the IC50 was 0.029 µM in experiment [1], over 1 µM in experiment [2], 0.005 µM in experiment [3] and over 1 µM in experiment [4].

As to `Fc1ccc(CN2CCC(c3nnn4cnc5[nH]ccc5c34)CC2)c(Cl)c1` [compound 165, 1-[1-(2-chloro-4-fluorobenzyl)piperidin-4-yl]-7H-pyrrolo[3,2-e][1,2,3]triazolo[1,5-c]pyrimidine], the IC50 in experiment [1] (Table^a 154) is 0.02 µM; in experiment [2] (Table^a 154), 0.1 µM; in experiment [3] (Table^a 154) it was 0.0044 µM; in experiment [4] (Table^a 154), 0.34 µM.

For `FC1(F)Oc2ccc(CN3CCC(c4nnn5cnc6[nH]ccc6c45)CC3)cc2O1` [compound 227, 1-{1-[(2,2-Difluorobenzo[d][1,3]dioxol-5-yl)methyl]piperidin-4-yl}-7H-pyrrolo[3,2-e][1,2,3]triazolo[1,5-c]pyrimidine], the IC50 in experiment [1] was 0.021 µM; in experiment [2], 0.079 µM; in experiment [3], 0.0025 µM; in experiment [4], 0.57 µM.

`O=C(NCc1ccc(F)cc1)[C@H]1CC[C@H](c2nnn3cnc4[nH]ccc4c23)CC1` [compound 207, trans-N-(4-fluorobenzyl)-4-(7H-pyrrolo[3,2-e][1,2,3]triazolo[1,5-c]pyrimidin-1-yl)cyclohexanecarboxamide]: the concentration for half-maximal inhibition (IC50) in experiment [1] (Table^a 154) was 0.055 µM; in experiment [2] (Table^a 154) it was over 1 µM; in experiment [3] (Table^a 154), 0.009 µM; in experiment [4] (Table^a 154) it was over 1 µM.

For the compound `N#CC1(c2ccccc2)CCN(C[C@H]2CC[C@H](c3nnn4cnc5[nH]ccc5c34)CC2)CC1` [compound 310, 1-{[trans-4-(7H-pyrrolo[3,2-e][1,2,3]triazolo[1,5-c]pyrimidin-1-yl)cyclohexyl]methyl}-4-phenylpiperidine-4-carbonitrile], the IC50 in experiment [1] was 0.38 µM; in experiment [2], over 1 µM; in experiment [3] it was 0.071 µM; in experiment [4] it was over 1 µM.

Take `N#C/C=C/[C@H]1CC[C@H](c2nnn3cnc4[nH]ccc4c23)CC1` [compound 440, (E)-3-[trans-4-(7H-Pyrrolo[3,2-e][1,2,3]triazolo[1,5-c]pyrimidin-1-yl)cyclohexyl]acrylonitrile]: the IC50 in experiment [1] was found to be 0.031 µM; in experiment [2] it was 0.54 µM; in experiment [3], 0.0053 µM; in experiment [4] it was 0.14 µM.

Consider `OC1CCN(C[C@H]2CC[C@H](c3nnn4cnc5[nH]ccc5c34)CC2)CC1` [compound 271, 1-{[trans-4-(7H-pyrrolo[3,2-e][1,2,3]triazolo[1,5-c]pyrimidin-1-yl)cyclohexyl]methyl}piperidin-4-ol], for which the IC50 in experiment [1] is 0.063 µM; in experiment [2], over 1 µM; in experiment [3] it was 0.02 µM; in experiment [4] it was 0.43 µM.

With `OCC1(NC[C@H]2CC[C@H](c3nnn4cnc5[nH]ccc5c34)CC2)CC1` [compound 327, [1-({[trans-4-(7H-pyrrolo[3,2-e][1,2,3]triazolo[1,5-c]pyrimidin-1-yl)cyclohexyl]methyl}amino)cyclopropyl]methanol], the IC50 in experiment [1] stood at 0.054 µM; in experiment [2], 0.79 µM; in experiment [3], 0.007 µM; in experiment [4], 0.55 µM.
